Measured values from PubChem BioAssay (NCI).
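Tested at 5 concentrations; 48 h exposure; 96-well plates; endpoints linearly interpolated, else capped at highest concentration. Definition used: TGI = concentration required for complete inhibition of growth.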

Tests used:
Assay in all cases: NCI tumour cell line growth inhibition, 48 h
CCRF-CEM leukemia = tested on: CCRF-CEM leukemia
OVCAR-3 ovarian = tested on: OVCAR-3 ovarian
K-562 leukemia = tested on: K-562 leukemia
SF-295 CNS = tested on: SF-295 CNS
786-0 renal = tested on: 786-0 renal
OVCAR-4 ovarian = tested on: OVCAR-4 ovarian
MALME-3M melanoma = tested on: MALME-3M melanoma
OVCAR-5 ovarian = tested on: OVCAR-5 ovarian
MCF7 breast = tested on: MCF7 breast
NCI-H226 lung = tested on: NCI-H226 lung
SF-268 CNS = tested on: SF-268 CNS
SK-MEL-28 melanoma = tested on: SK-MEL-28 melanoma
UO-31 renal = tested on: UO-31 renal
EKVX NSCLC = tested on: EKVX NSCLC
HCT-15 colon = tested on: HCT-15 colon
M14 melanoma = tested on: M14 melanoma
HT29 colon = tested on: HT29 colon
SK-MEL-2 melanoma = tested on: SK-MEL-2 melanoma
MDA-N = tested on: MDA-N

SMILES | TGI (CCRF-CEM leukemia) [µM] | TGI (OVCAR-3 ovarian) [µM] | TGI (K-562 leukemia) [µM] | TGI (SF-295 CNS) [µM] | TGI (786-0 renal) [µM] | TGI (OVCAR-4 ovarian) [µM] | TGI (MALME-3M melanoma) [µM] | TGI (OVCAR-5 ovarian) [µM] | TGI (MCF7 breast) [µM] | TGI (NCI-H226 lung) [µM] | TGI (SF-268 CNS) [µM] | TGI (SK-MEL-28 melanoma) [µM] | TGI (UO-31 renal) [µM] | TGI (EKVX NSCLC) [µM] | TGI (HCT-15 colon) [µM] | TGI (M14 melanoma) [µM] | TGI (HT29 colon) [µM] | TGI (SK-MEL-2 melanoma) [µM] | TGI (MDA-N) [µM]
Cc1nc2ccccc2c(=O)n1-c1n[nH]c2ccccc12 | > 100 | > 100 | > 100 | > 100 | > 100 | > 100 | > 100 | > 100 | > 100 | > 100 | > 100 | > 100 | > 100 | > 100 | > 100 | > 100 | > 100 | > 100 | 
COc1ccc(-c2cnoc2-c2ccc(OC)c(OC)c2)cc1OC | 13.4 | 7.54 | > 100 | 4.27 | 6.9 | > 100 |  | 36 |  | > 24 | 15 | > 21.9 | 41.6 | 20.7 | 9.01 | 5.39 | 11.1 | 42.7 | 
CC1C2=C(CC(C)(C)CC2=O)NC2=C1C(=O)CC(C)(C)C2 | > 100 | > 100 | > 100 |  | > 100 | > 100 |  | > 100 | > 100 | > 100 | > 100 | > 100 | > 100 | > 100 | > 100 | > 100 | > 100 |  | 
COc1ccc(-c2cc(-c3ccc(Cl)cc3)n(C3OC(CO)C(O)C(O)C3O)c(=S)c2C#N)cc1 (stereo unspecified) |  |  | > 100 | > 100 | 35.5 | > 100 |  | 82.2 |  |  | > 100 | > 100 | > 100 |  | > 100 | 89.7 | > 100 | 97.9 | > 100
O=S(=O)(C(=Ic1ccccc1)S(=O)(=O)C(F)(F)C(F)(F)C(F)(F)C(F)(F)F)C(F)(F)C(F)(F)C(F)(F)C(F)(F)F | 18.1 | 29.3 | 16.4 | 30.6 | 29.5 | 14.7 | 26.1 | 30.9 | 18.1 | 15 | 42.7 | 29.4 | 25.8 | 37.1 | 33.7 | 28.2 | 31.4 |  | 
Cc1c(/C=N/NC(=S)Nc2cccc(Cl)c2)c(=O)n(-c2ccccc2)n1C | > 100 |  | 31.5 | 28 | 37 | 40 |  |  | 62.5 | 33.9 | 36.7 | > 100 | 88.7 | 33.3 | > 100 | 40.1 | > 100 | 36.7 | 
CC1(c2cccc3c2C2(O)C=CC4(CCC32)OCCO4)OCCO1 (stereo unspecified) | > 100 | > 100 | > 100 | > 100 | > 100 | > 100 | > 100 | > 100 |  | > 100 | > 100 | > 100 | > 100 | > 100 | > 100 | > 100 | > 100 | > 100 | 
O=C1CSC(/C(=C/c2ccccc2)c2nc3ccccc3[nH]2)=N1 | > 100 |  | > 100 | > 100 | > 100 | > 100 | > 100 | > 100 |  | 38.4 | > 100 | > 100 | > 100 | > 100 | > 100 | > 100 | > 100 | > 100 | 
O=S1(=O)NNC(=NCc2ccc(Cl)c(Cl)c2)c2ccccc21 | 81 | > 100 | > 100 | > 100 | > 100 | > 100 | > 100 | > 100 |  | > 100 | > 100 |  | > 100 | > 100 | > 100 | > 100 | > 100 | > 100 | 
Cc1ccc(N/C(Sc2ccccc2)=C(/C(Cl)=C(Cl)Cl)[N+](=O)[O-])c(C)c1 | 76.1 |  | 45.8 | 47 | 39.1 | > 100 | 34 | 23 | 28 | 55.4 | 29.5 | 41.2 |  | 65.1 | 32.3 | 59.7 | 35.6 | 36.9 | 
O=C1c2cccc3cccc(c23)C(=O)N1CCCNCCCCNCCCN1C(=O)c2cccc3cccc(c23)C1=O | 0.205 | 4.58 | 0.337 | 3.4 | 0.734 | 1.93 | 0.74 | 2.44 |  | 2.5 | 0.605 | 0.938 | 5.51 | 3.28 | 13.8 | 1.94 | 1.27 | 1.89 | 1.47
COc1cc2cc[n+](C)c(Cc3ccccc3)c2cc1OC | > 100 | > 100 | > 100 | > 100 | > 100 | > 100 | > 100 | > 100 |  | > 100 | > 100 | > 100 | > 100 | > 100 | > 100 | > 100 | > 100 | > 100 | 
CNC(C)Cc1ccccc1O (stereo unspecified) | > 100 | > 100 | > 100 | > 100 | > 100 | > 100 | > 100 | > 100 |  | > 100 | > 100 | > 100 | > 100 | > 100 | > 100 | > 100 | > 100 | > 100 | 
Oc1[nH]c2ccccc2c1N=NC(=S)N1CCCCC1 |  | 1.7 |  | 3.36 | 6.64 | 4.48 | 2.2 | 21.1 | 6.26 | 5.02 | 14.3 | 12.2 | 3.23 | 9.75 | 2.42 | 2.23 | 10.8 | 6.12 | 15.5
COc1ccc(N(C)CN(C)c2nc(N(C)C)nc(N(C)C)n2)cc1 | > 100 | > 100 | > 100 | > 100 | > 100 | > 100 | > 100 | > 100 |  |  | > 100 | > 100 | > 100 | > 100 | > 100 | > 100 | > 100 | > 100 | 
COc1cccc(/C(CC(O)(C(F)(F)F)C(F)(F)F)=N\N(C)C)c1 | > 100 | > 100 | > 100 | > 100 | > 100 | > 100 | > 100 | > 100 |  | > 100 | > 100 | > 100 | > 100 | > 100 | > 100 | > 100 | > 100 | > 100 | > 100
CCOC(=O)[C@@H]1C[C@H]1c1ccc(O)c(O)c1 |  | > 100 | 51.3 | > 100 | > 100 |  | > 100 | > 100 | > 100 | > 100 | > 100 | > 100 | > 100 | > 100 | > 100 | 73.6 | > 100 | 61.5 | 37.8
CC1(C)OCC2(CO1)CSCCCSCC1(COC(C)(C)OC1)CSCCCSC2 | > 100 | > 100 | > 100 | > 100 | > 100 | > 100 |  | > 100 |  |  | > 100 | > 100 | > 100 | > 100 | > 100 | > 100 | > 100 |  | > 100
[N-]=[N+]=Nc1ccc(NCCCCCC(=O)ON2C(=O)CCC2=O)c([N+](=O)[O-])c1 |  | > 100 | > 100 | > 100 | > 100 | > 100 | > 100 | > 100 | > 100 | > 100 | > 100 | > 100 | > 100 | > 100 | > 100 | > 100 | > 100 | > 100 | 
COC1(C(C)(C)C)C=C(C(C)(C)C)P(=O)(O)O1 (stereo unspecified) |  | > 100 | > 100 | > 100 | > 100 | > 100 | > 100 | > 100 | > 100 |  | > 100 | > 100 |  | > 100 | > 100 | > 100 | > 100 | > 100 | > 100
Cc1cccc2[nH]c3cc(O)cc(O)c3c(=O)c12 | > 10 | > 10 | > 10 | > 10 | > 10 | > 10 | > 10 | > 10 |  | > 10 | > 10 | > 10 | > 10 |  | > 10 | > 10 | > 10 | > 10 | > 10
NCCC(=O)N[C@H](Cc1cc(O)c(O)c(SCC(NC(=O)CC[C@H](N)C(=O)O)C(=O)NCC(=O)O)c1)C(=O)O (stereo partly specified) |  |  | > 50 | > 50 | > 50 | > 50 | > 50 | > 50 | > 50 | > 50 | > 50 | > 50 | > 50 | > 50 | > 50 | > 50 | > 50 | > 50 | > 50
